Results taken from paper PMC9537276, “A pathway for chitin oxidation in marine bacteria” (Nature Communications, 2022).

Columns and labels:
[1] = molecular target: T1, OngC (Pseudoalteromonas prydzensis, UniProt Z9U939ZVG8); assay: ammonia release assay kit; Q-TOF-MS; format: biochemical; details: 10 mM substrate (made in situ by OngB from GlcNAc1A), 10 mM Bis-Tris-HCl pH 7.5, 25 °C
T1 construct: full length, C-terminal His tag, pET22b, E. coli BL21 (DE3)
T1 sequence (Z9U939ZVG8 1-415): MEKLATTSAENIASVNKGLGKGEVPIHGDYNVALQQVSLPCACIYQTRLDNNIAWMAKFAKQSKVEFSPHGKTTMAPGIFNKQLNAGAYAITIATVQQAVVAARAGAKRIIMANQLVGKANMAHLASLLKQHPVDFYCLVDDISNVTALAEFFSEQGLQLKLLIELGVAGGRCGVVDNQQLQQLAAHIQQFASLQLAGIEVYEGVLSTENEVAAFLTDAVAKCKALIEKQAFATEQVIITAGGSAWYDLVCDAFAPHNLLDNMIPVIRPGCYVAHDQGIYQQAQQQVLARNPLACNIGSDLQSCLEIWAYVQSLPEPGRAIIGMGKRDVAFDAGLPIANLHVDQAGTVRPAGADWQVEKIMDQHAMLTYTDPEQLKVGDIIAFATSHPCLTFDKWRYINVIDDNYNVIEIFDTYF

[2] = molecular target: T2, OngB (Pseudoalteromonas prydzensis, UniProt A0A7V1CY72); assay: acetate release assay kit; Q-TOF-MS; format: biochemical; details: 25 mM substrate, 10 mM Bis-Tris-HCl pH 7.5, 25 °C, 30 min
T2 construct: gene ENH88_07920; full length, C-terminal His tag, pET22b, E. coli BL21 (DE3)
T2 sequence (A0A7V1CY72 1-489): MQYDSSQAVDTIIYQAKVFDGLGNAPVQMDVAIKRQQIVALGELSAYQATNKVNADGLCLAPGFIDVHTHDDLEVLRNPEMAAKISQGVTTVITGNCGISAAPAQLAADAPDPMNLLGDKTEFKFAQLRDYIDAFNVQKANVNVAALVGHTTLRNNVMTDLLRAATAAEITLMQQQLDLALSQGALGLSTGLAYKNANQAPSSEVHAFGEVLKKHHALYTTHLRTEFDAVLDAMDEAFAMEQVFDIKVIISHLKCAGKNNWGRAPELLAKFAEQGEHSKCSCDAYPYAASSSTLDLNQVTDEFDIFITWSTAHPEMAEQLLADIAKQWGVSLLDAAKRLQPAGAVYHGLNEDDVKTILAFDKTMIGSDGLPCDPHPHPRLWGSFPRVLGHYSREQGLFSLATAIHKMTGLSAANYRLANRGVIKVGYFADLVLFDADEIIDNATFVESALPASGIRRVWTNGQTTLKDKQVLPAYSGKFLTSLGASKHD

| SMILES | ammonia release assay kit; Q-TOF-MS [1] | acetate release assay kit; Q-TOF-MS [2] |
| --- | --- | --- |
| N[C@@H](C(=O)O)[C@@H](O)[C@H](O)[C@H](O)CO [GlcN1A, 2-(amino)-2-deoxy-D-gluconic acid] | OngC can deaminate GlcN1A to produce ammonia and KDG | – |
| CC(=O)N[C@@H](C(=O)O)[C@@H](O)[C@H](O)[C@H](O)CO [GlcNAc1A, 2-(acetylamino)−2-deoxy-D-gluconic acid] | – | Only OngB was shown to act on GlcNAc1A to produce acetate |
